Results: ChEMBL document CHEMBL1909046, “DrugMatrix in vitro pharmacology data”

How the values were obtained:
[1] = biological target: T1, Endothelin-1 receptor (Homo sapiens, UniProt P25101); type: cell membranes, Membrane; conditions: cho-k1; note: in other assays of this panel Not Active means under 50% inhibition at 10 µM
T1 sequence (P25101 whole entry): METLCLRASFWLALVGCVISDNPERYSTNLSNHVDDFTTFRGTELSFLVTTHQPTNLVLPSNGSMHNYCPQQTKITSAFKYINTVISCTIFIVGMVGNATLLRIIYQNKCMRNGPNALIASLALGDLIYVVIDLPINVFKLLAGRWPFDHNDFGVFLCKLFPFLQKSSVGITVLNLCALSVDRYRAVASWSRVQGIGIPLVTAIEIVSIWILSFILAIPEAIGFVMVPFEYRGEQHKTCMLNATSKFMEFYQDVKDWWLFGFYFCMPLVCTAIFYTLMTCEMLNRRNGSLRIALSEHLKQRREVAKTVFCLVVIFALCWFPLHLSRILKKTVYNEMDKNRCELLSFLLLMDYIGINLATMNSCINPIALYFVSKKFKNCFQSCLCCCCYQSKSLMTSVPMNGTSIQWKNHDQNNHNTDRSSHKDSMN

[2] = biological target: T2, Alpha-1A adrenergic receptor (Rattus norvegicus, UniProt P43140); experiment: DRUGMATRIX: Alpha-1A adrenergic receptor radioligand binding (ligand: prazosin); type: cell membranes, Wistar, Submaxillary gland, Membrane; conditions: Not Active = under 50% inhibition at 10 µM
T2 sequence (P43140 whole entry): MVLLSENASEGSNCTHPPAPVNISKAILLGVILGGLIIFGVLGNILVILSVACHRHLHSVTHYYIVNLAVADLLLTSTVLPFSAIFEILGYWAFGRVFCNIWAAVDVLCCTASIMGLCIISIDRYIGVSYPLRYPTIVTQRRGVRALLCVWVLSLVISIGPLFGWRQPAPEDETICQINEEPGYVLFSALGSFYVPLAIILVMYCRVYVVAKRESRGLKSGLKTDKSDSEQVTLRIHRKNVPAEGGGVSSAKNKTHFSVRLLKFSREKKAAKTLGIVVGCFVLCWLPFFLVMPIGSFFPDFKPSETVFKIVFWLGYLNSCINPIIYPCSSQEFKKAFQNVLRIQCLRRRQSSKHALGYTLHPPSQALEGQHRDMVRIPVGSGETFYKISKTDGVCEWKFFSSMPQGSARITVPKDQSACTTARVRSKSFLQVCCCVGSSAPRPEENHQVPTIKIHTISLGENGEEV

[3] = biological target: Protein kinase C alpha type (Homo sapiens, UniProt P17252); type: cell-based; conditions: sf9;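 note: inhibition of PKCalpha kinase activity measured in an enzyme assay with histone as the phosphorylation substrate; in other assays of this panel Not Active means under 50% inhibition at 10 µM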
[4] = biological target: T3, Alpha-2A adrenergic receptor (Homo sapiens, UniProt P08913); type: cell membranes, Sf9, Membrane; conditions: sf9; note: in other assays of this panel Not Active means under 50% inhibition at 10 µM
T3 sequence (P08913 whole entry): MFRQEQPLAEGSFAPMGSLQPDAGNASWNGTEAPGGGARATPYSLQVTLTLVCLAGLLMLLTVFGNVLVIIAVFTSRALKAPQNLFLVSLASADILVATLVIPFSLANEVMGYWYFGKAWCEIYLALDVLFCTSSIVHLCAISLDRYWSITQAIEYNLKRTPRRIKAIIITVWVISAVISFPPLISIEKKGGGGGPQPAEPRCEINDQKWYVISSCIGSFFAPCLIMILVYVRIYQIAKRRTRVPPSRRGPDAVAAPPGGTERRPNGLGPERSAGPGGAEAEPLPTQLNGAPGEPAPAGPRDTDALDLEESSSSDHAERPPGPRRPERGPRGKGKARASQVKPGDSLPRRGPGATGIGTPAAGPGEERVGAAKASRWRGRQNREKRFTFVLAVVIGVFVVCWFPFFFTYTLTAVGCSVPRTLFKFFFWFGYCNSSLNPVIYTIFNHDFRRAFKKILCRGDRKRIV

[5] = DRUGMATRIX: Calcium Channel Type L, Phenylalkylamine radioligand binding (ligand: [3H] (-)-Desmethoxyverapamil (D-888)); type: cell membranes, Rattus norvegicus, Wistar, Brain, Membrane; conditions: Not Active = under 50% inhibition at 10 µM
[6] = DRUGMATRIX: GABAA, Flunitrazepam, Central radioligand binding (ligand: [3H] Flunitrazepam); type: cell membranes, Rattus norvegicus, Wistar, Brain, Membrane; conditions: Not Active = under 50% inhibition at 10 µM

C[C@H](C(=O)O)c1ccc2oc(-c3ccc(F)cc3)nc2c1 [FLUNOXAPROFEN]
Not Active: IC50 [1] | IC50 [2] | IC50 [3] | IC50 [4] | IC50 [5] | Ki [5] | IC50 [6] | Ki [6]

CCN1CCN(c2cc3c(cc2F)c(=O)c(C(=O)O)cn3C2CC2)CC1 [ENROFLOXACIN]
Not Active: IC50 [1] | IC50 [2] | IC50 [3] | IC50 [4] | IC50 [5] | Ki [5] | IC50 [6] | Ki [6]

C[C@]12CC[C@@H](O)C[C@@H]1CC[C@@H]1[C@@H]2CC[C@]2(C)C(=O)CC[C@@H]12 [ANDROSTERONE]
Not Active: IC50 [1] | IC50 [2] | IC50 [3] | IC50 [4] | IC50 [5] | Ki [5] | IC50 [6] | Ki [6]

O=C(NCCN1CCOCC1)c1ccc(Cl)cc1 [MOCLOBEMIDE]
Not Active: IC50 [1] | IC50 [2] | IC50 [3] | IC50 [4] | IC50 [5] | Ki [5] | IC50 [6] | Ki [6]

NC(=O)CN1CCCC1=O
Not Active: IC50 [1] | IC50 [2] | IC50 [3] | IC50 [4] | IC50 [5] | Ki [5] | IC50 [6] | Ki [6]

Oc1ccccc1 [PHENOL]
Not Active: IC50 [1] | IC50 [2] | IC50 [3] | IC50 [4] | IC50 [5] | Ki [5] | IC50 [6] | Ki [6]

CCO [ALCOHOL]
Not Active: IC50 [1] | IC50 [2] | IC50 [3] | IC50 [4] | IC50 [5] | Ki [5] | IC50 [6] | Ki [6]

COc1ccc(Cl)cc1C(=O)NCCc1ccc(S(=O)(=O)NC(=O)NC2CCCCC2)cc1 [GLYBURIDE]
Not Active: IC50 [1] | IC50 [2] | IC50 [3] | IC50 [4] | IC50 [5] | Ki [5] | IC50 [6] | Ki [6]

OC[C@H]1O[C@@H]2O[C@H]3[C@H](O)[C@@H](O)[C@@H](O[C@H]4[C@H](O)[C@@H](O)[C@@H](O[C@H]5[C@H](O)[C@@H](O)[C@@H](O[C@H]6[C@H](O)[C@@H](O)[C@@H](O[C@H]7[C@H](O)[C@@H](O)[C@@H](O[C@H]8[C@H](O)[C@@H](O)[C@@H](O[C@H]1[C@H](O)[C@H]2O)O[C@@H]8CO)O[C@@H]7CO)O[C@@H]6CO)O[C@@H]5CO)O[C@@H]4CO)O[C@@H]3CO [BETADEX]
Not Active: IC50 [1] | IC50 [2] | IC50 [3] | IC50 [4] | IC50 [5] | Ki [5] | IC50 [6] | Ki [6]

NC(N)=Nc1nc(CSCCC(N)=NS(N)(=O)=O)cs1 [FAMOTIDINE]
Not Active: IC50 [1] | IC50 [2] | IC50 [3] | IC50 [4] | IC50 [5] | Ki [5] | IC50 [6] | Ki [6]

COc1cc(NC(C)CCCN)c2ncccc2c1 (stereo unspecified) [PRIMAQUINE]
Not Active: IC50 [1] | IC50 [2] | IC50 [3] | IC50 [4] | IC50 [5] | Ki [5] | IC50 [6] | Ki [6]

Cc1c(N)nc([C@H](CC(N)=O)NC[C@H](N)C(N)=O)nc1C(=O)N[C@H](C(=O)N[C@H](C)[C@@H](O)[C@H](C)C(=O)N[C@H](C(=O)NCCc1nc(-c2nc(C(=O)NCCC[S+](C)C)cs2)cs1)[C@@H](C)O)[C@@H](O[C@@H]1O[C@@H](CO)[C@@H](O)[C@H](O)[C@@H]1O[C@H]1O[C@H](CO)[C@@H](O)[C@H](OC(N)=O)[C@@H]1O)c1c[nH]cn1.[Br-] [BLEOMYCIN A2]
Not Active: IC50 [1] | IC50 [2] | IC50 [3] | IC50 [4] | IC50 [5] | Ki [5] | IC50 [6] | Ki [6]
